Consider two substances from ChEMBL document CHEMBL2331295, “Characterization of a selective CaMKII peptide inhibitor” (Eur J Med Chem, 2013).

The target in experiment [1] is Calcium/calmodulin-dependent protein kinase type II subunit alpha (Homo sapiens) (UniProt Q9UQM7). The experiment can be described thus: Inhibition of GFP-tagged CAMK2alpha (unknown origin) expressed in african green monkey Vero cells using syntide2 as substrate assessed as incorporation of 32P at 5 uM after 30 mins by scintillation counting analysis in presence of [gamma32P]ATP relative to control. The format is cell-based.

Another experiment has as its system H9c2. Nature of the experiment: Inhibition of serum-induced endogenous CAMK2 activation in […] H9C2 cells at 5 uM after 30 mins relative to control. It counts as cell-based.
Experiment [2] deals with T1, Calcium/calmodulin-dependent protein kinase type IV (Homo sapiens) (UniProt Q16566).
T1 sequence (whole entry): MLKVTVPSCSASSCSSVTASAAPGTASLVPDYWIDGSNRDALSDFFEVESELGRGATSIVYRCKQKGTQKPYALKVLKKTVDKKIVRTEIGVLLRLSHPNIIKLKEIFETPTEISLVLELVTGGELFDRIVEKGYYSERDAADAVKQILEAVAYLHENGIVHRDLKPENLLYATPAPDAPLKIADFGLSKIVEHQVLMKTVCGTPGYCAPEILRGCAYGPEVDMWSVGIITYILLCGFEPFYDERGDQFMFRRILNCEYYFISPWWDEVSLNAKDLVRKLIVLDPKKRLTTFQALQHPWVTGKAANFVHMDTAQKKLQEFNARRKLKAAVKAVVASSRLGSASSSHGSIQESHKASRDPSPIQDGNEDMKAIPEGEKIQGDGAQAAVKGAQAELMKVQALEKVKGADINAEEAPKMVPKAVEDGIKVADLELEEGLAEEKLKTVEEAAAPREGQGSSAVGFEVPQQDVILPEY
The experiment can be described thus: Inhibition of CAMK4 (unknown origin) using gamma peptide as substrate assessed as incorporation of 32P at 5 uM after 30 mins by scintillation counting analysis in presence of [gamma32P]ATP relative to control.

For experiment [3], the target named is Calcium/calmodulin-dependent protein kinase type 1 (Homo sapiens) (UniProt Q14012). Nature of the experiment: Inhibition of CAMK1 (unknown origin) using ADR1G as substrate assessed as incorporation of 32P at 5 uM after 30 mins by scintillation counting analysis in presence of [gamma32P]ATP relative to control.

As usually defined, the inhibition is the percentage by which the read-out fell short of the control.

Activity calls are given as the source filed them. No cut-off for these calls is given here.

Calcium/calmodulin-dependent protein kinase type II subunit alpha (Homo sapiens), sequence (Q9UQM7 whole entry): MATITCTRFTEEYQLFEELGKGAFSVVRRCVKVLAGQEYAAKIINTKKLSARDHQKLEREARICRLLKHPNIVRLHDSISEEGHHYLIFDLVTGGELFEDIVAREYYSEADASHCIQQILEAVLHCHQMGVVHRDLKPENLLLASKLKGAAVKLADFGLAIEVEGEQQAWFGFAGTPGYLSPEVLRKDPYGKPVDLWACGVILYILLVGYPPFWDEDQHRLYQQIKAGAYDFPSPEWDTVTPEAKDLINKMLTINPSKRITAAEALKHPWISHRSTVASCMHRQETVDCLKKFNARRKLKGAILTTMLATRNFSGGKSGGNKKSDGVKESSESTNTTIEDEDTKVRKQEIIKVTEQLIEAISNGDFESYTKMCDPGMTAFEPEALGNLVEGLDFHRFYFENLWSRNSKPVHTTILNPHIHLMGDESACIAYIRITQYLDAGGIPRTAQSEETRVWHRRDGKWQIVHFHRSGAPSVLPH
Calcium/calmodulin-dependent protein kinase type 1 (Homo sapiens), sequence (Q14012 whole entry, looked up): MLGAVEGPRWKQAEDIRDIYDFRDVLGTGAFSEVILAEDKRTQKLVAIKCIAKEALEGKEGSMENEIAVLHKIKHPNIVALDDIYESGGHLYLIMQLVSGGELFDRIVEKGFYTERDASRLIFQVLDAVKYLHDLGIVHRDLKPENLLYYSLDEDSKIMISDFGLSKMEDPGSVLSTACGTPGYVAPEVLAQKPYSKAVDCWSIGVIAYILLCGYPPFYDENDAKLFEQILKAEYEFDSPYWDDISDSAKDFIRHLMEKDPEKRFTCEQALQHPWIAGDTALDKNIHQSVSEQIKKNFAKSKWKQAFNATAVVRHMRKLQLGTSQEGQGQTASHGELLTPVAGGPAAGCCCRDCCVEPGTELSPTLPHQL

Turning to H-KRPPKLGQIGRSKRVVI-OH, the inhibition in experiment [1] was under 70%.
As for “H-RQIKIWFQNRRMKWKKGGCKRPPKLGQIGRAKRVVI-OH”, the figures for the inhibition (in the experiment with H9c2; in experiment [3]) were 52% and 6.1%, respectively. Also, in experiment [2], the inhibition result is “inactive”.
